The subject of one assay is H. zea. The note with it: hollow fiber formulation; 12-ha maize field; cited from earlier work.
The next assay concerns moths. In words: Brazilian cotton field trial, compared with grower's standard methomyl cover spray (dead moth counts). Type of assay: in vivo, noctuid moths. The following applies: methomyl alone sprayed over the entire crop, grower's standard rate; for 5 days after the application. The protocol:
Initial work on products of the present disclosure consisted of a blend of oleoresins designed to mimic the attractive volatiles used by adult noctuids to identify sugar-rich sources of floral nectar. This blend also contains a number of sugar-based and proteic phagostimulants (feeding stimulants) to encourage the target insects to feed on the formulation to full engorgement. When a pesticide is added to this product, these components encourage megadose intake of the incorporated killing agent. This minimizes the risk of sub-lethal exposure, a contributing factor to the development of resistance. To further reduce the risk of resistance, the product may be designed as a tank mix to be blended with a small dose of the user's pesticide of choice just prior to application. This characteristic makes the product an extremely adaptable pest management solution and lends itself well to pesticide rotation programs. The product was originally tested in cotton and soybean fields in South America, where noctuid pests pose a significant economic threat to multiple crops. […]

Counter-ions that a name gives are not always drawn.

On to `CCCC/C=C\CCCCCCCCOC=O` [(Z)-9-tetradecenyl formate], for which, in the assay on H. zea, the rate of mating result is reported as “cut in half”.
With `CNC(=O)ON=C(C)SC` [methomyl], the dead moths recovered entry with moths is “no or very few dead moths”.

Values taken from patent US20240008478A1, “Composition and Methods for Managing and Controlling Lepidopteran Insects” (priority 2022, published 2024).
